Test results as given in US10392391B2 (Vertex Pharmaceuticals Incorporated, priority 2012, dated 2019).

Target: ATR kinase (full-length ATR) (Homo sapiens (Human), UniProt Q13535)
Test: ATR inhibition assay (radioactive-phosphate incorporation)
Format: biochemical
Settings: not given
Outline: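 Radiometric 33P incorporation by 5 nM full-length ATR into 800 μM target peptide with 10 μM [γ-33P]ATP, in 50 mM Tris/HCl pH 7.5, 10 mM MgCl2, 1 mM DTT, 7% DMSO, 25° C. Compound pre-incubated 10 minutes; reaction stopped after 24 hours, captured on phosphocellulose. Ki(app) from non-linear regression of initial rates.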

Sequence of ATR kinase (full-length ATR) (Q13535 whole entry): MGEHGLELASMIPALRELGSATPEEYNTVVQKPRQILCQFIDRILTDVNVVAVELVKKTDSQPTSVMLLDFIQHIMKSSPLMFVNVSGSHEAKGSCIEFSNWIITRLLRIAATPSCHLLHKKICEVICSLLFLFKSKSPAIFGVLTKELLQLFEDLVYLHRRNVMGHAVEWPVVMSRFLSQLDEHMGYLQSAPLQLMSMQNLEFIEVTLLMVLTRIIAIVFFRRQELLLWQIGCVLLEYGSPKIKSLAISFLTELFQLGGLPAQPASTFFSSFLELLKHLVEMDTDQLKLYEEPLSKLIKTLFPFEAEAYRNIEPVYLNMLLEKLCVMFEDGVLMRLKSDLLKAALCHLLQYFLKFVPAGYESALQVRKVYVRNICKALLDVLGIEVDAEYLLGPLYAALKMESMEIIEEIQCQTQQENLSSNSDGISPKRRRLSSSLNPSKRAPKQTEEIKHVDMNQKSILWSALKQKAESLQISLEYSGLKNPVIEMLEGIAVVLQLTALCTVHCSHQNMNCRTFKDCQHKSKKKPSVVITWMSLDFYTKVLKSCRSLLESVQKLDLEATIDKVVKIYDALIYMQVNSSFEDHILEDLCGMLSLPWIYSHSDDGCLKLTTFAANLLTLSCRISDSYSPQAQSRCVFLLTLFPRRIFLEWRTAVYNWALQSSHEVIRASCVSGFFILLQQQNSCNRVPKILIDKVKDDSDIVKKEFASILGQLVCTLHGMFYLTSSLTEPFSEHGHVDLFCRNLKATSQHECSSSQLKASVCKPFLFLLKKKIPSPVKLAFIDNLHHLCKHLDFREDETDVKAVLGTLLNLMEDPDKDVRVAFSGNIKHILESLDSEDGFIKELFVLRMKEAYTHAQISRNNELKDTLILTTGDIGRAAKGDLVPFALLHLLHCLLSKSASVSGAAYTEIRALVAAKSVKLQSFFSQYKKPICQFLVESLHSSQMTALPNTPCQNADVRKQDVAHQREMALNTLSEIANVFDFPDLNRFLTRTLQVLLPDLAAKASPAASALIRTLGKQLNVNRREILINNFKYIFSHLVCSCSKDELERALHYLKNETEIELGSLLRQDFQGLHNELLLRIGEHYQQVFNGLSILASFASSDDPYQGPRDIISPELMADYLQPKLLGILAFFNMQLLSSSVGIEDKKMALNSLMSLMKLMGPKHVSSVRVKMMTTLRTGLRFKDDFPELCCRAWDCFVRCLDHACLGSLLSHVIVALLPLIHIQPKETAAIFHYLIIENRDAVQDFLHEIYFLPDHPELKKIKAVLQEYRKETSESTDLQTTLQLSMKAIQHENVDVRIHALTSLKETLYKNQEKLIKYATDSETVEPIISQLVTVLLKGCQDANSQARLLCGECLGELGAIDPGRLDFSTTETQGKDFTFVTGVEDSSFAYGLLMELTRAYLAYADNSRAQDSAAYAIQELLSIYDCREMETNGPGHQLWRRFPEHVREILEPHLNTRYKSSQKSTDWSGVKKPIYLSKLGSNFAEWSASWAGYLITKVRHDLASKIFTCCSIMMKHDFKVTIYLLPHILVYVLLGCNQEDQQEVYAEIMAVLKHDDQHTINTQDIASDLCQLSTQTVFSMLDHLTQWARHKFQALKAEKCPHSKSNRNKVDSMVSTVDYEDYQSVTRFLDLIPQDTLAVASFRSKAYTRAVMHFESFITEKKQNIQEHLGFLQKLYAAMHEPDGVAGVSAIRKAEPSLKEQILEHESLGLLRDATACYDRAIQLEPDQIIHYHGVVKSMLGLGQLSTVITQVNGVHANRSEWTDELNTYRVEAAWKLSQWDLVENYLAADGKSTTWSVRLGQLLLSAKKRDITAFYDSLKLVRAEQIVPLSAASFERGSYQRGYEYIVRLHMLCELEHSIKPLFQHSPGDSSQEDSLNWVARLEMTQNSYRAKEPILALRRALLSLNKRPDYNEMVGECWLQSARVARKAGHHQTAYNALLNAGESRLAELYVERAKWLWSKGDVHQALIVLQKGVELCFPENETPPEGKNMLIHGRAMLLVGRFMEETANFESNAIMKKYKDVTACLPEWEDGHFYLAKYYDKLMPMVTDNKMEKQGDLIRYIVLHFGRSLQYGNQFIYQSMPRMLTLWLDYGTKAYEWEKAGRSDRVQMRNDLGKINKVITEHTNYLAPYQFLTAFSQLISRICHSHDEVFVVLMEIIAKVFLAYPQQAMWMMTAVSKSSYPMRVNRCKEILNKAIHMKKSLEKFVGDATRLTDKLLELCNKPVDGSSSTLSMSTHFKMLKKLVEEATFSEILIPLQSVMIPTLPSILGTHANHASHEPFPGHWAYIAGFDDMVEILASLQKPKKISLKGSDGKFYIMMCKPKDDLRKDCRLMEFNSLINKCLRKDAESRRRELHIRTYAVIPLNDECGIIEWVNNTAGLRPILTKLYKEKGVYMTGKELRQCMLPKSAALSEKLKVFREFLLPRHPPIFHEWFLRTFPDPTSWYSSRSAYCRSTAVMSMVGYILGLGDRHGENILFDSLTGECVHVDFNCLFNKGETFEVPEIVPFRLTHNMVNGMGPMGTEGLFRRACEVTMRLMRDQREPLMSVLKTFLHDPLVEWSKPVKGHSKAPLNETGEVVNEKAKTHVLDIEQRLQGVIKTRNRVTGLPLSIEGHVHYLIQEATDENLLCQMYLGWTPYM

First: CN1CC[C@@H](OC2CCN(c3ccncc3NC(=O)c3c(N)nn4cc(F)cnc34)CC2)C1 [I-N-131]
Second: CN1CCN(C(=O)C2CCN(c3c(F)cncc3NC(=O)c3c(N)nn4cc(F)cnc34)C2)CC1 (stereo not shown) [I-N-191, 2-amino-6-fluoro-N-(5-fluoro-4-(3-(4-methylpiperazine-1-carbonyl)pyrrolidin-1-yl)pyridin-3-yl)pyrazolo[1,5-a]pyrimidine-3-carboxamide]
The Ki of the first is lower: 0.01 to 1 µM for the first, 1 to 5 µM for the second.

Compound CN1CCN(C(=O)C2CCCN(c3c(F)cncc3NC(=O)c3c(N)nn4cc(F)cnc34)C2)CC1 (stereo not shown) [I-N-289, 2-amino-6-fluoro-N-(5-fluoro-4-(3-(4-methylpiperazine-1-carbonyl)piperidin-1-yl)pyridin-3-yl)pyrazolo[1,5-a]pyrimidine-3-carboxamide] has a Ki of 1 to 5 µM.

Same assay, conditions: Ki(app), 5 nM full-length ATR, 10 μM ATP, 25° C.

Nc1nn2cc(Cl)cnc2c1C(=O)Nc1cnccc1OCCN1CCOCC1 [I-O-60, 2-amino-6-chloro-N-(4-(2-morpholinoethoxy)pyridin-3-yl)pyrazolo[1,5-a]pyrimidine-3-carboxamide] and Nc1nn2cc(Cl)cnc2c1C(=O)Nc1cnccc1OC1CCOCC1 [I-O-61, 2-amino-6-chloro-N-(4-((tetrahydro-2H-pyran-4-yl)oxy)pyridin-3-yl)pyrazolo[1,5-a]pyrimidine-3-carboxamide] fall in the same range of Ki: 0.01 to 1 µM for the first, 0.01 to 1 µM for the second.

Nc1nn2cc(F)cnc2c1C(=O)Nc1cncc(F)c1N1CCC(c2nccs2)CC1 [I-N-184, 2-amino-6-fluoro-N-(5-fluoro-4-(4-(thiazol-2-yl)piperidin-1-yl)pyridin-3-yl)pyrazolo[1,5-a]pyrimidine-3-carboxamide] and Nc1nn2cc(F)cnc2c1C(=O)Nc1cncc(F)c1N1CCCC1 [I-N-246, 2-amino-6-fluoro-N-(5-fluoro-4-(pyrrolidin-1-yl)pyridin-3-yl)pyrazolo[1,5-a]pyrimidine-3-carboxamide] fall in the same range of Ki: 0.01 to 1 µM for the first, 0.01 to 1 µM for the second.

First: N#CCc1cnc2c(C(=O)Nc3cnccc3N3CCCC3)c(N)nn2c1 [I-N-77, 2-amino-6-(cyanomethyl)-N-(4-(pyrrolidin-1-yl)pyridin-3-yl)pyrazolo[1,5-a]pyrimidine-3-carboxamide]
Second: N#CCc1cnc2c(C(=O)Nc3cnccc3OC3CCOCC3)c(N)nn2c1 [I-O-30, 2-amino-6-(cyanomethyl)-N-(4-((tetrahydro-2H-pyran-4-yl)oxy)pyridin-3-yl)pyrazolo[1,5-a]pyrimidine-3-carboxamide]
The Ki of the first is higher: 0.01 to 1 µM for the first, < 0.01 µM for the second. The second binds more tightly here.

CO[C@@H]1CCN(C(=O)C2CCN(c3ccncc3NC(=O)c3c(N)nn4cc(F)cnc34)CC2)C1 [I-G-93, (R)-2-amino-6-fluoro-N-(4-(4-(3-methoxypyrrolidine-1-carbonyl)piperidin-1-yl)pyridin-3-yl)pyrazolo[1,5-a]pyrimidine-3-carboxamide] and CS(=O)(=O)CC1CCN(c2ccncc2NC(=O)c2c(N)nn3cc(F)cnc23)CC1 [I-N-215, 2-amino-6-fluoro-N-(4-(4-((methylsulfonyl)methyl)piperidin-1-yl)pyridin-3-yl)pyrazolo[1,5-a]pyrimidine-3-carboxamide] fall in the same range of Ki: 0.01 to 1 µM for the first, 0.01 to 1 µM for the second.

CN(C)CCN1CCN(c2ccncc2NC(=O)c2c(N)nn3cc(Cl)cnc23)CC1 [I-N-49, 2-amino-6-chloro-N-(4-(4-(2-(dimethylamino)ethyl)piperazin-1-yl)pyridin-3-yl)pyrazolo[1,5-a]pyrimidine-3-carboxamide] and COCCN1CCN(c2ccncc2NC(=O)c2c(N)nn3cc(Cl)cnc23)CC1 [I-N-60, 2-amino-6-chloro-N-(4-(4-(2-methoxyethyl)piperazin-1-yl)pyridin-3-yl)pyrazolo[1,5-a]pyrimidine-3-carboxamide] fall in the same range of Ki: 0.01 to 1 µM for the first, 0.01 to 1 µM for the second.

Nc1nn2cc(F)cnc2c1C(=O)Nc1cnccc1N1CCN(S(=O)(=O)C2CCOCC2)CC1 [I-N-177, 2-amino-6-fluoro-N-(4-(4-((tetrahydro-2H-pyran-4-yl)sulfonyl)piperazin-1-yl)pyridin-3-yl)pyrazolo[1,5-a]pyrimidine-3-carboxamide] and Nc1nn2cc(F)cnc2c1C(=O)Nc1cnccc1N1CCN(S(=O)(=O)C2CC2)CC1 [I-N-176, 2-amino-N-(4-(4-(cyclopropylsulfonyl)piperazin-1-yl)pyridin-3-yl)-6-fluoropyrazolo[1,5-a]pyrimidine-3-carboxamide] fall in the same range of Ki: 0.01 to 1 µM for the first, 0.01 to 1 µM for the second.

Nc1nn2cc(F)cnc2c1C(=O)Nc1cncc(F)c1N1CCN([C@H]2CCOC2)CC1 [I-N-125, (S)-2-amino-6-fluoro-N-(5-fluoro-4-(4-(tetrahydrofuran-3-yl)piperazin-1-yl)pyridin-3-yl)pyrazolo[1,5-a]pyrimidine-3-carboxamide] and Nc1nn2cc(F)cnc2c1C(=O)Nc1cncc(F)c1N1CCC(C(=O)N2CC(F)C2)CC1 [I-G-74, 2-amino-6-fluoro-N-(5-fluoro-4-(4-(3-fluoroazetidine-1-carbonyl)piperidin-1-yl)pyridin-3-yl)pyrazolo[1,5-a]pyrimidine-3-carboxamide] fall in the same range of Ki: 0.01 to 1 µM for the first, 0.01 to 1 µM for the second.

First: N#CCc1cnc2c(C(=O)Nc3cnccc3OCCO)c(N)nn2c1 [I-O-33, 2-amino-6-(cyanomethyl)-N-(4-(2-hydroxyethoxy)pyridin-3-yl)pyrazolo[1,5-a]pyrimidine-3-carboxamide]
Second: Nc1nn2cc(Cl)cnc2c1C(=O)Nc1cnccc1O[C@@H]1CCOC1 [I-O-54, (R)-2-amino-6-chloro-N-(4-((tetrahydrofuran-3-yl)oxy)pyridin-3-yl)pyrazolo[1,5-a]pyrimidine-3-carboxamide]
The Ki of the first is lower: < 0.01 µM for the first, 0.01 to 1 µM for the second.

First: Nc1nn2cc(F)cnc2c1C(=O)Nc1cnccc1N1CCN(C2COC2)C2CC21 (stereo not shown) [I-N-31, 2-amino-6-fluoro-N-(4-(5-(oxetan-3-yl)-2,5-diazabicyclo[4.1.0]heptan-2-yl)pyridin-3-yl)pyrazolo[1,5-a]pyrimidine-3-carboxamide]
Second: Nc1nn2cc(F)cnc2c1C(=O)Nc1cnccc1N1CCN2C(=O)OCC2C1 (stereo not shown) [I-N-238, 2-amino-6-fluoro-N-(4-(3-oxotetrahydro-1H-oxazolo[3,4-a]pyrazin-7(3H)-yl)pyridin-3-yl)pyrazolo[1,5-a]pyrimidine-3-carboxamide]
The Ki of the first is higher: 1 to 5 µM for the first, 0.01 to 1 µM for the second. The second binds more tightly here.

CC1CN(C)CCN1c1ccncc1NC(=O)c1c(N)nn2cc(Cl)cnc12 (stereo not shown) [I-N-72, 2-amino-6-chloro-N-(4-(2,4-dimethylpiperazin-1-yl)pyridin-3-yl)pyrazolo[1,5-a]pyrimidine-3-carboxamide] and COCC1CN(c2ccncc2NC(=O)c2c(N)nn3cc(Cl)cnc23)CCN1C (stereo not shown) [I-N-47, 2-amino-6-chloro-N-(4-(3-(methoxymethyl)-4-methylpiperazin-1-yl)pyridin-3-yl)pyrazolo[1,5-a]pyrimidine-3-carboxamide] fall in the same range of Ki: 0.01 to 1 µM for the first, 0.01 to 1 µM for the second.

Nc1nn2cc(F)cnc2c1C(=O)Nc1cncc(F)c1N1CCC(C(=O)N2CCC(N3CCCCC3)C2)CC1 (stereo not shown) [I-G-64, 2-amino-6-fluoro-N-(5-fluoro-4-(4-(3-(piperidin-1-yl)pyrrolidine-1-carbonyl)piperidin-1-yl)pyridin-3-yl)pyrazolo[1,5-a]pyrimidine-3-carboxamide] and Nc1nn2cc(F)cnc2c1C(=O)Nc1cncc(F)c1N1CCC(C(=O)N2CC[C@H](N3CCCC3)C2)CC1 [I-G-58, (S)—N-(4-(4-([1,3′-bipyrrolidine]-1′-carbonyl)piperidin-1-yl)-5-fluoropyridin-3-yl)-2-amino-6-fluoropyrazolo[1,5-a]pyrimidine-3-carboxamide] fall in the same range of Ki: 0.01 to 1 µM for the first, 0.01 to 1 µM for the second.

Nc1nn2cc(F)cnc2c1C(=O)Nc1cnccc1OC1CCC(C(=O)O)CC1 (stereo not shown) [I-O-8, 4-((3-(2-amino-6-fluoropyrazolo[1,5-a]pyrimidine-3-carboxamido)pyridin-4-yl)oxy)cyclohexanecarboxylic acid] and Nc1nn2cc(F)cnc2c1C(=O)Nc1cnccc1N1CCC(c2ncon2)CC1 [I-N-241, N-(4-(4-(1,2,4-oxadiazol-3-yl)piperidin-1-yl)pyridin-3-yl)-2-amino-6-fluoropyrazolo[1,5-a]pyrimidine-3-carboxamide] fall in the same range of Ki: 0.01 to 1 µM for the first, 0.01 to 1 µM for the second.

Nc1nn2cc(Cl)cnc2c1C(=O)Nc1cnccc1-n1ccnc1 [I-N-29, N-(4-(1H-imidazol-1-yl)pyridin-3-yl)-2-amino-6-chloropyrazolo[1,5-a]pyrimidine-3-carboxamide] and Nc1nn2cc(Cl)cnc2c1C(=O)Nc1cnccc1Oc1cccnc1 [I-O-70, 2-amino-6-chloro-N-(4-(pyridin-3-yloxy)pyridin-3-yl)pyrazolo[1,5-a]pyrimidine-3-carboxamide] fall in the same range of Ki: 0.01 to 1 µM for the first, 0.01 to 1 µM for the second.

Nc1nn2cc(F)cnc2c1C(=O)Nc1cnccc1-c1ccc(C(=O)N2CCC(N3CCCC3)CC2)nc1 [I-C-53, 2-amino-6-fluoro-N-(6-(4-(pyrrolidin-1-yl)piperidine-1-carbonyl)-[3,4′-bipyridin]-3′-yl)pyrazolo[1,5-a]pyrimidine-3-carboxamide] and CN1CCN(C(=O)C2CCN(c3c(F)cncc3NC(=O)c3c(N)nn4cc(F)cnc34)CC2)C2CC21 (stereo not shown) [I-G-65, 2-amino-6-fluoro-N-(5-fluoro-4-(4-(5-methyl-2,5-diazabicyclo[4.1.0]heptane-2-carbonyl)piperidin-1-yl)pyridin-3-yl)pyrazolo[1,5-a]pyrimidine-3-carboxamide] fall in the same range of Ki: 0.01 to 1 µM for the first, 0.01 to 1 µM for the second.

First: NCC1CCN(c2ccncc2NC(=O)c2c(N)nn3cc(Cl)cnc23)CC1 [I-N-91, 2-amino-N-(4-(4-(aminomethyl)piperidin-1-yl)pyridin-3-yl)-6-chloropyrazolo[1,5-a]pyrimidine-3-carboxamide]
Second: Nc1nn2cc(Cl)cnc2c1C(=O)Nc1cnccc1N1CCC(N)CC1 [I-N-86, 2-amino-N-(4-(4-aminopiperidin-1-yl)pyridin-3-yl)-6-chloropyrazolo[1,5-a]pyrimidine-3-carboxamide]
The Ki of the first is lower: < 0.01 µM for the first, 0.01 to 1 µM for the second. The first binds more tightly here.

Nc1nn2cc(Cl)cnc2c1C(=O)Nc1cnccc1N1CC[S+]([O-])CC1 [I-N-68, 2-amino-6-chloro-N-(4-(1-oxidothiomorpholino)pyridin-3-yl)pyrazolo[1,5-a]pyrimidine-3-carboxamide] showed a Ki of 0.01 to 1 µM.
